Data on 1 compound can be found in paper PMC4792926, “G9a-mediated methylation of ERα links the PHF20/MOF histone acetyltransferase complex to hormonal gene expression” (Nature Communications, 2016).

“Also recorded” adds a separate entry of the source.

In assay [1] the test system is ERα target genes (GREB1, PR, TFF1). Nature of the assay: qPCR of E2-induced ERα target gene expression in MCF-7 cells. Type of assay: cell-based, human. Here is the method: (§1) Human MCF-7, T-47D, U2OS and HEK293T cells (ATCC) were cultured in DMEM (Cellgro) supplemented with 10% fetal bovine serum (FBS, Sigma). For G9a inhibitor treatment, BIX-01294 (Sigma) was added to the medium, at the indicated concentrations, 24 h before the cells were collected. For shRNA knockdown, 293T cells were co-transfected with pMD2.G and pPAX2 (Addgene) together with pLKO-shRNA constructs or a non-targeting pLKO-shRNA (pLKO-shCtrl). Viral supernatants were harvested after 48 h. For infections, MCF-7 or T-47D cells were incubated with viral supernatants in the presence of 8 μg ml^−1 polybrene. After 48 h, puromycin (2 μg ml^−1) was added to the DMEM. Cells were grown, with selection for 5–7 days to select for stable knockdown cells before oestrogen treatment. For oestrogen treatment, cells were starved in phenol red-free DMEM supplemented with 10% charcoal-stripped FBS (Sigma) for 3–4 days, and 10 nM 17β-estradiol (Sigma) or ethanol (vehicle) were added to the medium (3 or 6 h for gene expression studies, and 15 and 45 min for ChIP experiments) before the cells were collected.
(§2) Reverse transcription and real-time PCR were performed as described previously. mRNA was prepared using the RNeasy Plus kit (Qiagen) and reverse transcribed using the First Strand Synthesis kit (Invitrogen). Quantitative real-time RT–PCR (qPCR) was performed on an ABI 7500-FAST Sequence Detection System using the Power SYBR Green PCR Master Mix (Applied Biosystems). Gene expression was calculated following normalization to GAPDH levels using the comparative Ct (cycle threshold) method and is shown as ‘Fold' relative to the expression of each gene in the control cells without E2 treatment that was arbitrarily set as ‘1'. The primer sequences used for RT–PCR are listed in Supplementary Table 5.
In general terms: Real-time PCR tracks product formation cycle by cycle.

The test system of a further assay is G9a. Conditions: cited from earlier work. The text has this: Next, we sought to determine whether the methyltransferase activity of G9a is required for its co-activation of endogenous ERα target genes. […] (Supplementary Fig. 2a,b). Importantly, under these conditions, although a res ...
The test system of assay [2] is G9a, PHF20 and ERα protein levels. Nature of the assay: Western blot of total G9a, PHF20 and ERα in whole cell extract, HEK-293T cells. The class given is cell-based, human. The note with it: 24 h; WCE western blot. Here is the method:
as §1

The test system of the next assay is PHF20–ERα interaction. The assay is described as follows: Co-IP of ERα and PHF20 in HEK-293T cells. Type of assay: cell-based, human. Conditions: 24 h before co-IP; Flag-ERα and Myc-PHF20 co-transfected HEK-293T. The protocol:
as §1
For immunoprecipitation (IP) experiments, each cell fraction was incubated with the anti-FLAG M2-conjugated agarose beads overnight at 4 °C. The beads were washed 3–6 times with cell lysis buffer, and the bound proteins were eluted in SDS buffer and analysed by western blot. […]

The test system of assay [3] is MCF-7 cells. Nature of the assay: MCF-7 cell proliferation (cell counting). Type of assay: cell-based, human. Conditions: different doses; cell numbers counted for 6 days. The protocol: (§3) Human MCF-7, T-47D, U2OS and HEK293T cells (ATCC) were cultured in DMEM (Cellgro) supplemented with 10% fetal bovine serum (FBS, Sigma). For G9a inhibitor treatment, BIX-01294 (Sigma) was added to the medium, at the indicated concentrations, 24 h before the cells were collected. For shRNA knockdown, 293T cells were co-transfected with pMD2.G and pPAX2 (Addgene) together with pLKO-shRNA constructs or a non-targeting pLKO-shRNA (pLKO-shCtrl). Viral supernatants were harvested after 48 h. For infections, MCF-7 or T-47D cells were incubated with viral supernatants in the presence of 8 μg ml^−1 polybrene. After 48 h, puromycin (2 μg ml^−1) was added to the DMEM. […]
(a, b) Growth curves of control (shCtrl) and G9a knockdown (shG9a) MCF-7 cells. Cells from 6 wells were counted in triplicates every two days, for 8 days (a) or 6 days (b) after seeding.
(c, d) G9a is required for cell growth in colony formation assays. […] Colonies arising from control and G9 knockdown MCF-7 cells were counted two weeks after seeding (d)
(e) G9a depletion reduces the anchorage-independent growth of MCF-7 cells. […] After four weeks, colonies were counted. At least 5 fields of view were counted for each well.
(f) The catalytic activity of G9a is required for cell growth. MCF-7 cells treated with the indicated doses of BIX-01249 were counted 6 days after seeding. […]

Another assay deals with endogenous G9a. The assay is described as follows: Global histone H3K9me2 western blot (endogenous G9a activity) in MCF-7 cells. Type of assay: cell-based, human. The note with it: 4 and 8 μM for 24 h. The protocol: as §1
(In general: A western blot detects proteins with antibodies after separation by electrophoresis.)

The subject of another assay is MAGE-A2. Nature of the assay: qPCR of MAGE-A2, a G9a-repressed gene, in MCF-7 cells. The class given is cell-based, human. The note with it: 4 and 8 μM for 24 h, mean +/- S.E.M. of two experiments. Here is the method: as §3, with “DMEM. Cells were grown, with selection for 5–7 days to select for stable knockdown cells before oestrogen treatment.” for “DMEM.”
as §2, with “The primer sequences used for RT–PCR are listed in Supplementary Table 5.” left out

Assay [4] deals with MCF-7 cells. The assay is described as follows: Colony formation assay, MCF-7. Type of assay: cell-based, human. Here is the method: MCF-7 cells treated with shRNAs or BIX-01294 were seeded in six-well plates (1,000 cells per well) and grown in DMEM plus 10% FBS at 37 °C for 10–14 days. For anchorage-independent cell growth assays, 4,000 MCF-7 cells were suspended in DMEM containing 0.4% agar and seeded into six-well plates pre-coated with a base layer of 0.6% agar and grown at 37 °C for 4 weeks. Cells were fixed, stained with 0.005% crystal violet blue and photographed. Colony numbers were counted using ImageJ software with size cutoff of 75 μm. Results were quantitated from three to six wells or three to five views of each well from three independent replicates.

As for `COc1cc2nc(N3CCCN(C)CC3)nc(NC3CCN(Cc4ccccc4)CC3)c2cc1OC` [BIX-01294], in assay [1] (4 or 8 μM BIX-01294, 10 nM E2 for 3 h, qPCR, two experiments), the “E2-induced activation of GREB1 and PR under BIX-01294” value was “clearly impaired by BIX-01294 in a dose-dependent manner; also recorded: inhibits E2-induced activation of GREB1 and PR”. For the same compound, in assay [1] (BIX-01294-treated MCF-7 cells, E2), the “residual E2-dependent response under BIX-01294” value is recorded as “a residual E2 response was sufficient to maintain GREB1 gene expression; also recorded: there was still an E2-dependent response”. In assay [1] (MCF-7, BIX-01294-treated (discussion)), the “E2-dependent gene activation under BIX-01294” value is on record as “greatly reduced E2-dependent gene activation”. In addition, the G9a inhibition selectivity result in the assay on G9a is reported as “selective G9a inhibitor”. Further, the “total levels of G9a, PHF20 and ERα” value in assay [2] was “not affected”. The “PHF20–ERα interaction” value in the assay with PHF20–ERα interaction is “markedly diminished the PHF20–ERα interaction; also recorded: diminishes the interaction between ERα and PHF20 in cells”. In the assay with MCF-7 cells [3], the cell proliferation entry is recorded as “inhibited cell proliferation in a dose-dependent manner”. Also, in the assay on endogenous G9a, the “enzymatic activity of endogenous G9a (global H3K9 methylation levels)” value is given as “effectively inhibited; also recorded: reduces global H3K9me2 levels”. Also, in the assay with MAGE-A2, the “derepression of MAGE-A2” value is reported as “derepression of MAGE-A2; also recorded: induces the derepression”. The colony formation entry in the assay on MCF-7 cells [4] (0.5 or 1 μM, 10–14 days, crystal violet) is reported as “greatly suppressed colony formation”. In the assay on MCF-7 cells [4] (indicated doses, MCF-7 colonies, at least three experiments), the cell survival result is reported as “inhibits cell survival”.
